This is an account of results in patent publication US20100113466A1, “OXAZOLE-PYRIDAZINE-OXAZOLE ALPHA-HELIX MIMETIC” (The Scripps Research Institute, priority 2008, published 2010).

Structures are written as SMILES.

This assay deals with Bcl-xL (Homo sapiens, UniProt Q07817). Briefly: Bak/Bcl-XL competitive fluorescence polarization binding assay with fluorescein labeled Bid peptide. The following applies: displacement of fluorescein labeled Bid peptide from Bcl-xL; mP values only in drawings. An excerpt: The affinity of each molecule within the library of potential Bak mimetics can be assayed with respect to binding to Bcl-xL receptor. The binding affinity can be determined, for example, by a competitive binding assay based on fluorescence polarization. See Wang, et al., Proc. Natl. Acad. Sci., 2000, 97:7124-7129.
Competitive fluorescence polarization-based assays require a dye-labeled peptide to determine if the small molecule has affinity for the target protein. These assays can be carried out with a fluorescein labeled Bid peptide. […] When a solution of fluorescein labeled Bid peptide is irradiated with polarized light, the peptide rotates quickly and the emitted light is depolarized. Upon complexation with the target Bcl-xL protein, the larger complex rotates slowly and the emitted light remains polarized.
When the fluorescein-labeled Bid/Bcl-xL complex is exposed to small molecules with binding affinity for Bcl-xL, the Bid peptide is displaced and the amount of depolarized light emitted increases. This polarization amount (mP) provides an estimate of the affinity for the small molecules for Bcl-xL
See Kutzki, et al., J. Am. Chem. Soc., 2002, 124:11838-11839. This compound acts as a positive control.
These compounds represent the strongest binders for Bcl-xL of the Bak mimetic library, with structure and mP values shown below.
(In general: Polarisation of emitted light reports the rotation of a fluorescent probe.)

Bcl-xL, sequence (Q07817 whole entry, species assumed): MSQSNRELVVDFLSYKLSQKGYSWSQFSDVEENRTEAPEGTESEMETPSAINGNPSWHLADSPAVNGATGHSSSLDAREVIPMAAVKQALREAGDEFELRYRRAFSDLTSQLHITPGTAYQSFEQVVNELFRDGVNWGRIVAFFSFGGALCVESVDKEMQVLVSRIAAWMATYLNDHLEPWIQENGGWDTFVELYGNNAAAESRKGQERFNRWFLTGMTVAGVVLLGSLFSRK

`CC(C)Cc1cc(-c2nc(C(C)C)co2)nnc1-c1nc(C(C)C)co1` [Compound 4.53, 2,2′-(4-isobutylpyridazine-3,6-diyl)bis(4-isopropyloxazole)]: the “activity (mP value) in binding to Bcl-xL” value is “particularly active”.
In the case of `CC(C)Cc1cc(C(=O)N2CCC[C@@H](OCc3ccccc3)C2)nnc1-c1nc(C(C)C)co1` [Compound 4.73, (R)-(3-(Benzyloxy)piperidin-1-yl)(5-isobutyl-6-(4-isopropyloxazol-2-yl)pyridazin-3-yl)methanone], the “activity (mP value) in binding to Bcl-xL” value is “particularly active”.
